Data published in patent publication US20240148821A1, “PHARMACEUTICAL USE OF CYCLIC PEPTIDE COMPOUND” (CHUGAI SEIYAKU KABUSHIKI KAISHA, priority 2021, published 2024).
pIC50: −log10 of the molar value. Numbered stars: 1 amine (or outer) side, 2 acyl side, 3 side chain; on linkers, the order of the positions; unused ones are H or OH. Bridge positions count the residues as written; N and C are the ends. Square brackets hold non-standard residues; d marks the D form. Peptide text beside a SMILES is read from it. * marks the point of attachment. hPhe(3,5-F2-4-CF3) = N[C@@H](CCc1cc(F)c(C(F)(F)F)c(F)c1)C(=O)O; hPhe(3-Cl-4-CF3) = N[C@@H](CCc1ccc(C(F)(F)F)c(Cl)c1)C(=O)O; hPhe(3-F,4-CF3) = N[C@@H](CCc1ccc(C(F)(F)F)c(F)c1)C(=O)O; NEtPhe(4-CF3) = CCN[C@@H](Cc1ccc(C(F)(F)F)cc1)C(=O)O; X24 = COc1cncc(C[C@@H](C(=O)[*:2])N(C)[*:1])c1; NMeAbu(4,4,4-F3) = CN[C@@H](CC(F)(F)F)C(=O)O; NMePhe(4-Me) = CN[C@@H](Cc1ccc(C)cc1)C(=O)O; NMedβ3hAla = C[C@H](CC(=O)[*:2])N(C)[*:1]; NMeAla(cPent) = CN[C@@H](CC1CCCC1)C(=O)O; NMeGly(cPent) = CN[C@H](C(=O)O)C1CCCC1; NMe3Pal = CN[C@@H](Cc1cccnc1)C(=O)O; NMeGly(cBu) = CN[C@H](C(=O)O)C1CCC1; NMeCha = CN[C@@H](CC1CCCCC1)C(=O)O; Hyp = O=C(O)[C@@H]1C[C@@H](O)CN1; NMeChg = CN[C@H](C(=O)O)C1CCCCC1; NMeI = CC[C@H](C)[C@H](NC)C(=O)O; NMeD = CN[C@@H](CC(=O)O)C(=O)O; NMeL = CN[C@@H](CC(C)C)C(=O)O; NMeNva = CCC[C@H](NC)C(=O)O; d(β3hA) = C[C@@H](N)CC(=O)O; NMeC = CN[C@@H](CS)C(=O)O; NMeS = CN[C@@H](CO)C(=O)O; NPhGly = O=C(O)CNc1ccccc1; Morpholide = C1CN(*)CCO1; NMeA = CN[C@@H](C)C(=O)O; NMeAib = CNC(C)(C)C(=O)O; Piperidide = C1CCN(*)CC1; Pra = C#CC[C@H](N)C(=O)O; Pyrrolidide = C1CCN(*)C1; Ac5c = NC1(C(=O)O)CCCC1; Aze = O=C(O)[C@@H]1CCN1; Ac4c = NC1(C(=O)O)CCC1; Aib = CC(C)(N)C(=O)O; Sar = CNCC(=O)O; Propyl = CCC*

What was measured:
[1] = tested on: Human pancreatic cancer cell line AsPC-1 (G12D mutation Kras); experiment: AsPC-1 cell growth inhibition (AsPC-1 CGI); assay type: cell-based; settings: read-out: AsPC-1 cell growth inhibition, 50% growth inhibitory concentration (IC50 value); 96 hours, CellTiter-Glo, values classified in ranges
[2] = biological target: protein-protein interaction between Kras and SOS1 (biotin-tagged human Kras loaded with GDP, His-tagged human SOS1) (Homo sapiens (Human), UniProt P01116, G12D); experiment: Protein-protein interaction inhibition between Kras and SOS1 (KrasG12D-SOS PPI) using AlphaScreen; assay type: biochemical; settings: AlphaScreen; biotin-tagged human Kras loaded with GDP, His-tagged human SOS1; read-out: KRAS G12D-SOS PPI IC50;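 note: kras produced in E. coli, Ni-coupled donor beads and streptavidin acceptor beads, excitation 680 nm with emission detected at 520–620 nm via singlet oxygen transfer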

Row | Structure (SMILES) | pIC50 [1] | pIC50 [2]
1 | CCC[C@H]1C(=O)N[C@@H]([C@@H](C)CC)C(=O)N(C)CC(=O)N(C)CC(=O)N(C)[C@@H](CC2CCCC2)C(=O)N(C)CC(=O)N[C@@H](CCc2ccc(C(F)(F)F)c(Cl)c2)C(=O)N(C)[C@@H](Cc2cccnc2)C(=O)NC2(CCCC2)C(=O)N(C)[C@@H](C2CCCCC2)C(=O)N(C)[C@H](C(=O)N2CCOCC2)CC(=O)N1C [Compound 1937] ([NMeNva]I[Sar][Sar][NMeAla(cPent)][Sar][hPhe(3-Cl-4-CF3)][NMe3Pal][Ac5c][NMeChg][NMeD]-Morpholide; lactam N-11) | < 6.30 | 8.51
2 | CC[C@H](C)[C@@H]1NC(=O)CSC[C@@H](C(=O)N(C)C)N(C)C(=O)[C@H](C2CCCC2)N(C)C(=O)C2(CCCC2)NC(=O)[C@@H]2CCCN2C(=O)[C@H](CCc2ccc(C(F)(F)F)c(Cl)c2)NC(=O)CN(C)C(=O)[C@H](CC2CCCCC2)N(C)C(=O)CN(C)C(=O)CN(C)C1=O [Compound 2172, (3S,9S,18S,24R,27S,33S)-18-[(2S)-butan-2-yl]-3-[2-[3-chloro-4-(trifluoromethyl)phenyl]ethyl]-9-(cyclohexylmethyl)-27-cyclopentyl-N,N,7,10,13,16,25,28-octamethyl-2,5,8,11,14,17,20,26,29,32-decaoxospiro[22-thia-1,4,7,10,13,16,19,25,28,31-decazabicyclo[31.3.0]hexatriacontane-30,1′-cyclopentane]-24-carboxamide] ({CH2CO}-I[Sar][Sar][NMeCha][Sar][hPhe(3-Cl-4-CF3)]P[Ac5c][NMeGly(cPent)][NMeC]-NMe2; thioether N-10) | < 6.30 | 7.85
3 | C#CC[C@@H]1NC(=O)[C@H](CC(C)C)N(C)C(=O)C[C@@H](C)NC(=O)[C@H](CC(C)C)N(C)C(=O)C(C)(C)NC(=O)[C@H](CC(C)C)N(C)C(=O)[C@H](CCc2ccc(C(F)(F)F)c(F)c2)NC(=O)CN(C)C(=O)[C@H](CC2CCCCC2)N(C)C(=O)CN(C)C(=O)CN(C)C1=O [Compound 1474] (cyclo([Aib][NMeL][d(β3hA)][NMeL][Pra][Sar][Sar][NMeCha][Sar][hPhe(3-F,4-CF3)][NMeL])) | < 6.30 | 6.62
4 | CC[C@H](C)[C@@H]1NC(=O)[C@H](CC(C)C)N(C)C(=O)C[C@@H](C)N(C)C(=O)[C@H]([C@@H](C)CC)N(C)C(=O)C2(CCCC2)NC(=O)[C@@H]2CCCN2C(=O)[C@H](CCc2ccc(C(F)(F)F)c(F)c2)NC(=O)CN(C)C(=O)[C@H](Cc2ccc(C)cc2)N(C)C(=O)[C@@H]2CCN2C(=O)[C@H](C)N(C)C1=O [Compound 404] (cyclo([Ac5c][NMeI][NMedβ3hAla][NMeL]I[NMeA][Aze][NMePhe(4-Me)][Sar][hPhe(3-F,4-CF3)]P)) | ≥ 7.70 | 8.32
5 | CCO[C@@H]1C[C@H]2C(=O)NC3(CCC3)C(=O)N(C)[C@@H](C3CCCC3)C(=O)N(C)[C@H](C)CC(=O)N(C)[C@@H](CC(C)C)C(=O)N[C@@H]([C@@H](C)CC)C(=O)N(C)[C@@H](C)C(=O)N3CC[C@H]3C(=O)N(CC)[C@@H](Cc3ccc(C(F)(F)F)cc3)C(=O)N(C)CC(=O)N[C@@H](CCc3ccc(C(F)(F)F)c(Cl)c3)C(=O)N2C1 [Compound 594] (cyclo([Ac4c][NMeGly(cPent)][NMedβ3hAla][NMeL]I[NMeA][Aze][NEtPhe(4-CF3)][Sar][hPhe(3-Cl-4-CF3)][Hyp](Et))) | ≥ 7.70 | 9.27
6 | CC[C@H](C)[C@@H]1NC(=O)[C@H](CC2CCCC2)N(C)C(=O)C[C@@H](C(=O)N2CCOCC2)N(C)C(=O)[C@H](C2CCCC2)N(C)C(=O)C2(CCCC2)NC(=O)[C@@H]2CCCN2C(=O)[C@H](CCc2ccc(C(F)(F)F)c(Cl)c2)NC(=O)CN(C)C(=O)[C@H](C2CCCC2)N(C)C(=O)[C@@H]2CCN2C(=O)[C@H](C)N(C)C1=O [Compound 1173] ([NMeAla(cPent)]I[NMeA][Aze][NMeGly(cPent)][Sar][hPhe(3-Cl-4-CF3)]P[Ac5c][NMeGly(cPent)][NMeD]-Morpholide; lactam N-11) | ≥ 7.70 | 9.13
7 | CC[C@H](C)[C@@H]1NC(=O)[C@H](CC(C)C)N(C)C(=O)C[C@@H](C)N(C)C(=O)[C@H](C2CCCC2)N(C)C(=O)C2(CCCC2)NC(=O)[C@@H]2CCCN2C(=O)[C@H](CCc2ccc(C(F)(F)F)c(Cl)c2)NC(=O)CN(C)C(=O)[C@H](Cc2ccc(C)cc2)N(C)C(=O)[C@@H]2CCN2C(=O)[C@H](C)N(C)C1=O [Compound 1750] (cyclo([Ac5c][NMeGly(cPent)][NMedβ3hAla][NMeL]I[NMeA][Aze][NMePhe(4-Me)][Sar][hPhe(3-Cl-4-CF3)]P)) | ≥ 7.70 | 8.89
8 | CCO[C@@H]1C[C@H]2C(=O)NC3(CCCC3)C(=O)N(C)[C@@H](C3CCCCC3)C(=O)N(C)[C@H](C(=O)N3CCCC3)CC(=O)N(C)[C@@H](CC(F)(F)F)C(=O)N[C@@H]([C@@H](C)CC)C(=O)N(C)CC(=O)N(C)CC(=O)N(C)[C@@H](CC3CCCCC3)C(=O)N(C)CC(=O)N[C@@H](CCc3ccc(C(F)(F)F)c(Cl)c3)C(=O)N2C1 [Compound 1369] ([NMeAbu(4,4,4-F3)]I[Sar][Sar][NMeCha][Sar][hPhe(3-Cl-4-CF3)][Hyp](Et)[Ac5c][NMeChg][NMeD]-Pyrrolidide; lactam N-11) | ≥ 7.70 | 9.26
9 | CCCOC[C@H]1C(=O)N(C)CC(=O)N[C@@H](CCc2ccc(C(F)(F)F)c(F)c2)C(=O)N2CCC[C@H]2C(=O)NC2(CCCC2)C(=O)N(C)[C@@H]([C@@H](C)CC)C(=O)N(C)[C@H](C(=O)N(C)C)CC(=O)N(C)[C@@H](CC(C)C)C(=O)N[C@@H]([C@@H](C)CC)C(=O)N(C)[C@@H](C)C(=O)N2CC[C@H]2C(=O)N1C [Compound 316] ([NMeL]I[NMeA][Aze][NMeS](Propyl)[Sar][hPhe(3-F,4-CF3)]P[Ac5c][NMeI][NMeD]-NMe2; lactam N-11) | ≥ 7.70 | 8.48
10 | CCCOC[C@H]1C(=O)N(C)CC(=O)N[C@@H](CCc2ccc(C(F)(F)F)c(Cl)c2)C(=O)N2CCC[C@H]2C(=O)NC2(CCCC2)C(=O)N(C)[C@@H]([C@@H](C)CC)C(=O)N(C)[C@H](C)CC(=O)N(C)[C@@H](CC(C)C)C(=O)N[C@@H]([C@@H](C)CC)C(=O)N(C)[C@@H](C)C(=O)N2CC[C@H]2C(=O)N1C [Compound 529] (cyclo([Ac5c][NMeI][NMedβ3hAla][NMeL]I[NMeA][Aze][NMeS](Propyl)[Sar][hPhe(3-Cl-4-CF3)]P)) | ≥ 7.70 | 8.09
11 | CC[C@H](C)[C@@H]1NC(=O)[C@H](C)N(C)C(=O)C[C@@H](C)N(C)C(=O)[C@H](C2CCC2)N(C)C(=O)C(C)(C)N(C)C(=O)CN(c2ccccc2)C(=O)[C@H](CCc2ccc(C(F)(F)F)c(Cl)c2)NC(=O)CN(C)C(=O)[C@H](CC2CCCCC2)N(C)C(=O)CN(C)C(=O)CN(C)C1=O [Compound 2145] (cyclo(I[Sar][Sar][NMeCha][Sar][hPhe(3-Cl-4-CF3)][NPhGly][NMeAib][NMeGly(cBu)][NMedβ3hAla][NMeA])) | < 6.30 | 7.66
12 | CC[C@H](C)[C@@H]1NC(=O)[C@H](CC(C)C)N(C)C(=O)C[C@@H](C(=O)N(C)C)N(C)C(=O)[C@H](C2CCCC2)N(C)C(=O)C2(CCCC2)NC(=O)[C@@H]2CCCN2C(=O)[C@H](CCc2cc(F)c(C(F)(F)F)c(F)c2)NC(=O)CN(C)C(=O)[C@H](Cc2ccc(C)cc2)N(C)C(=O)[C@@H]2CCN2C(=O)[C@H](C)N(C)C1=O [Compound 965] ([NMeL]I[NMeA][Aze][NMePhe(4-Me)][Sar][hPhe(3,5-F2-4-CF3)]P[Ac5c][NMeGly(cPent)][NMeD]-NMe2; lactam N-11) | ≥ 7.70 | 9.07
13 | CC[C@H](C)[C@@H]1NC(=O)[C@H](CC(C)C)N(C)C(=O)C[C@@H](C(=O)N2CCCCC2)N(C)C(=O)[C@H](C2CCCC2)N(C)C(=O)C2(CCCC2)NC(=O)[C@@H]2CCCN2C(=O)[C@H](CCc2ccc(C(F)(F)F)c(Cl)c2)NC(=O)CN(C)C(=O)[C@H](Cc2ccc(C)cc2)N(C)C(=O)[C@@H]2CCN2C(=O)[C@H](C)N(C)C1=O [Compound 1772] ([NMeL]I[NMeA][Aze][NMePhe(4-Me)][Sar][hPhe(3-Cl-4-CF3)]P[Ac5c][NMeGly(cPent)][NMeD]-Piperidide; lactam N-11) | ≥ 7.70 | 9.12
14 | CC[C@H](C)[C@@H]1NC(=O)[C@H](CC(C)C)N(C)C(=O)C[C@@H](C)N(C)C(=O)[C@H]([C@@H](C)CC)N(C)C(=O)C2(CCCC2)NC(=O)[C@@H]2CCCN2C(=O)[C@H](CCc2ccc(C(F)(F)F)c(Cl)c2)NC(=O)CN(C)C(=O)[C@H](CC2CCCCC2)N(C)C(=O)[C@@H]2CCN2C(=O)[C@H](C)N(C)C1=O [Compound 1733] (cyclo([Ac5c][NMeI][NMedβ3hAla][NMeL]I[NMeA][Aze][NMeCha][Sar][hPhe(3-Cl-4-CF3)]P)) | < 6.30 | 6.89
15 | CC[C@H](C)[C@@H]1NC(=O)[C@H](CC(C)C)N(C)C(=O)C[C@@H](C(=O)N2CCCCC2)N(C)C(=O)[C@H](C2CCCCC2)N(C)C(=O)C2(CCCC2)NC(=O)[C@H](Cc2cncc(OC)c2)N(C)C(=O)[C@H](CCc2ccc(C(F)(F)F)c(Cl)c2)NC(=O)CN(C)C(=O)[C@H](CC2CCCCC2)N(C)C(=O)CN(C)C(=O)CN(C)C1=O [Compound 887] ([NMeL]I[Sar][Sar][NMeCha][Sar][hPhe(3-Cl-4-CF3)][X24][Ac5c][NMeChg][NMeD]-Piperidide; lactam N-11) | < 6.30 | 8.21
